According to US5106610A, “Method for determining the diuretic potency of candidate drugs as inhibitors of the antidiuretic hormone-elicited water channel” (Childrens Medical Center Corporation, priority 1989, dated 1992):

What was measured:
ADH water channels = experiment: Proton permeability (PH+) of F-dextran loaded endocytic vesicles containing ADH water channels, stopped-flow fluorescence after imposed pH gradient; format: biochemical, Bufo marinus
Description: Endocytic vesicles from the bladder of Dominican toads were ADH stimulated and loaded with fluoroescein bound to dextran (F-dextran) following the procedures of Harris et.al., "Apical Membrane Vesicles of ADH-Stimulated Toad Bladder Are Highly Water Permeable,"Am. J. Physiol. In Press, (1989); Harris, H. W., et.al., "Fluorescent Markers to Study Membrane Retrieval in Antidiuretic Hormone-Treated Toad Urinary Bladder," Am. J. Physiol., 251:C274-C284 (1986). Briefly, the procedures were as follows.
Dominican toads (Bufo marinus), obtained from National Reagents, Bridgeport, CT, were employed. Urinary bladders of Bufo marinus were prepared and mounted on cannulas as small sacs. After a 20 minute interval of ADH stimulation (50 mU/ml), the apical surfaces of bladders were exposed to solutions containing 50 mg/ml of F-dextran (Av. Mol. Wt. 70,000 Daltons) and […], 30 Mm KCl, and […], pH 8.0, for an interval of 5 minutes followed by termination of ADH stimulation and incubation for an additional 10 minutes. The solution containing the F-dextran was then removed, the bladders rinsed to remove all extracellular F-dextran. The intermediate pellet fraction obtained from centrifugation of the cell was used. F-dextran loaded vesicles were washed repeatedly to remove F-dextran and partially purified by differential centrifugation. In the absence of ADH, no detectable fluorescence was present in this vesicle fraction despite apical membrane exposure to F-dextran.
Standard cuvette fluorescence measurements were performed using an SLM-Aminco 500C spectrofluorimeter (excitation wavelength 499 nm). Stopped-flow measurements were performed in a High Tech stopped-flow device (50 msec dead time) connected to a Photon Technologies Alphascan Fluorimeter. One syringe contained a concentrated vesicle suspension and antifluoroscein antibody while the other contained buffer with sufficient HCl to change the final extravesicular pH as indicated. Data from 3-5 determination performed on a single day were averages. Results were fitted to single exponentials and .tau. was converted to permeability using the following equation: […]
where JH + is the flux rate of protons in mole/sec, PH + is the permeability coefficient of protons in cm/sec, ΔC is the concentration gradient for protons across the vesicle membrane at the start of the experiment in mole/cm^3, and A is the surface area of a single F-dextran containing vesicle (7.1×10^-10 cm^2). See Harris, H. W., et.al., "Isolation and Characterization of Specialized Regions of Toad Urinary Bladder Apical Plasma Membrane Involved in the Water Permeability Response to Antidiuretic Hormone," J. Memb. Biol., 96:175-186 (1987). Jh + was calculated by multiplying 1/.tau. by the amount of buffer (in moles) in an individual vesicle (single vesicle volume was 1.41×10^-14 cm^3). .tau. is the mathematical term representing the time for the process to be 2/3 completed. Estimates of vesicle volume and surface area were calculated from dimensions of vesicles loaded with horseradish peroxides (HRP) instead of F-dextran.
The effect of pCMBS on the rate of pH change in F-dextran loaded vesicles was determined. The materials and procedures of Example 1 were employed, except as noted. […] The results are plotted in FIG. 3. As illustrated, preincubation of vesicles with pCMBS inhibited 54% of oH + in F-dextran loaded vesicles. Control pH + was 3.9±0.5×10^-3 cm/sec (n-5; p<0.005 compared to control; unpaired t test). […]

toad bladder [1] = conditions: NEM pretreatment; cited from earlier work
[2] = test system: human erythroycte membrane; conditions: NEM pretreatment; cited from earlier work
toad bladder [3] = conditions: cited from earlier work

CCN1C(=O)C=CC1=O [NEM, n-ethylmaleimide]
effect on pH + compared to control (significance) (ADH water channels; NEM 2 mM, 1 h pretreatment on ice): NS compared to control | pH + (proton permeability coefficient) after pretreatment (ADH water channels; NEM 2 mM, pretreated 1 h in HEPES buffer on ice, paired control 5.6±0.2×10^-3): 6.2±0.9×10^-3 cm/sec | inhibitory effect on water flux across the toad bladder (toad bladder [1]): no inhibitory effect | inhibitory effect on water flux across human erythrocyte membrane [2]: no inhibitory effect

O=C(CCc1ccc(O)cc1)c1c(O)cc(O)cc1O [Phloretin]
effect on apical membrane vesicle JH + (ADH water channels; phloretin 30 min prior to assay and present during stopped flow): without effect | PH + (proton permeability coefficient) of treated vesicles (ADH water channels; vesicles exposed to phloretin 30 min prior to assay, stopped flow in continued presence, paired studies): 2.6±0.4 ×10^-3 cm/sec | effect on ADH-stimulated urea flux in toad bladder (toad bladder [3]): inhibits

O=S(=O)(O)c1cc[c]([Hg][Cl])cc1 [pCMBS, parachloromercuribenzene sulfonate]
inhibition of oH + (proton permeability) in F-dextran loaded vesicles (ADH water channels; 1 mM pCMBS, one hour preincubation at 4° C., vesicles with 17.6 mM HEPES pH 8.0, extravesicular pH lowered to 6.0): 54%
